Data set [1] in a line: Tolerability in the 4T1 tumor study (body weight, general behavior). It counts as in vivo. As to conditions: intravenous daily dosing for 5 consecutive days, tumor-bearing Balb/c mice. The procedure:
(§1) Treatment: the tested compound was prepared right before dosing on day 8 after 4T1 inoculation. Each mouse received a predetermined dose of either the compound or saline intravenously daily for 5 consecutive days. The mice tumor volumes and mice body weights were monitored every other day along with other general behavior factors.
(§2) Endpoints: animal was euthanized if one of the following conditions was identified: • its neoplasm reached the predetermined 1000 cubic mms • the animal became moribund • body weight lost more than 20% of its original weight

The next data set relates to mouse 4T1 breast tumor. Put plainly: In vivo syngeneic mouse 4T1 breast tumor study. More on the design: species or system Balb/c mice.
Text: The Purpose: to assess the anti-tumor activity of the existing compound, C12H25NO8, PEGylated amine functionalized glycoside, 2-[2(2-Aminoethoxy)ethoxy]ethyl a-D-mannopyranoside, on a model of mouse 4T1 breast tumor in Balb/C mice.
Animal and Facility: healthy female Balb/c (5-6 weeks old), purchased from Harlan Laboratories, were allowed to acclimate for 3 days in a specific pathogen free animal facility. Animal housing, handling and procedures were followed according to the protocols and guidelines approved by the lab's Institutional Animal Care and Use Committee (IACUC).
In Vivo Syngeneic Tumor Study Design: Murine 4T1 breast tumor cells were kept in RPMI-1640 medium containing 10% FBS and 1% Pen/Strep. On the day of inoculation, the cells were harvested according to standard protocol (Beth Pulaski) and re-suspended in PBS at the cell concentration of 2.5×10^5 cells/ml. Each animal was injected with 0.1 ml of the cell solution into the right flank of Balb/c mice following the SOP. On the 8th day post-inoculation, all tumor volumes were measured and the animals were divided into two groups, control and treated.
Study Design: to deliver a predetermined dose of the compound intravenously for 5 days.
Study Objective: to observe clinically the reduction of the size of the tumors using calipers (our “biomarker”).[FIG. 2]
as §1, §2

In the case of `NCCOCCOCCO[C@H]1OC(CO)[C@@H](O)[C@H](O)C1O` (stereo partly drawn) [compound 5, 1-(2-(2-(2-Aminoethoxy)ethoxy)ethoxy-D-mannopyranoside], the “toxic effects / tolerability” value in data set [1] was “no toxic effects were observed”. In addition, the “maximal tumor growth inhibition index (TIC ratio)” value in the data set with mouse 4T1 breast tumor (by day 10, intravenously daily for 5 consecutive days from day 8 after 4T1 inoculation, tumor size by calipers) is “around 48%”. Moreover, in the data set with mouse 4T1 breast tumor (during treatment (day 8 to day 12), control tumors doubled every 2-3 days), the “4T1 tumor growth in the treated group” value is given as “grew slowly”. For the same molecule, the tumor reduction in the data set with mouse 4T1 breast tumor (syngeneic mouse breast cancer model, FIG. 1) was 48%.

The record behind these values is patent US9919000B2, “Altering cancer cellular functions through proton mopping” (priority 2013, dated 2018).
